Experimental findings from patent publication US20100069409A1, “"NOVEL COMPOUNDS"” (GLAXO GROUP LIMITED, priority 2006, published 2010) are described below.

With `Cc1c(F)cc(C(=O)NC2CC2)cc1-c1nc(NC(CO)CO)nc2c1ccc(=O)n2-c1c(F)cccc1F` [Example 49, N-cyclopropyl-3-(8-(2,6-difluorophenyl)-2-{[2-hydroxy-1-(hydroxymethyl)ethyl]amino}-7-oxo-7,8-dihydropyrido[2,3-d]pyrimidin-4-yl)-5-fluoro-4-methylbenzamide], the melting point (usually the temperature, or range, at which the solid turns liquid) was in the range of 214.2 to 217.5 °C. The result for `CSc1nc(-c2cc(C(=O)N(C)C)ccc2C)c2c(n1)N(c1c(F)cccc1F)C(=O)NC2` [Example 73, 3-[8-(2,6-difluorophenyl)-2-(methylthio)-7-oxo-5,6,7,8-tetrahydropyrimido[4,5-d]pyrimidin-4-yl]-N,N,4-trimethylbenzamide] reads 144 to 147 °C.
